# Molecular target: H1047R PIK3CA enzyme (Homo sapiens, UniProt P42336, H1047R)
# Test: ADP-Glo Biochemical PIK3CA Kinase Assay
# Chain of H1047R PIK3CA enzyme (P42336 whole entry H1047R): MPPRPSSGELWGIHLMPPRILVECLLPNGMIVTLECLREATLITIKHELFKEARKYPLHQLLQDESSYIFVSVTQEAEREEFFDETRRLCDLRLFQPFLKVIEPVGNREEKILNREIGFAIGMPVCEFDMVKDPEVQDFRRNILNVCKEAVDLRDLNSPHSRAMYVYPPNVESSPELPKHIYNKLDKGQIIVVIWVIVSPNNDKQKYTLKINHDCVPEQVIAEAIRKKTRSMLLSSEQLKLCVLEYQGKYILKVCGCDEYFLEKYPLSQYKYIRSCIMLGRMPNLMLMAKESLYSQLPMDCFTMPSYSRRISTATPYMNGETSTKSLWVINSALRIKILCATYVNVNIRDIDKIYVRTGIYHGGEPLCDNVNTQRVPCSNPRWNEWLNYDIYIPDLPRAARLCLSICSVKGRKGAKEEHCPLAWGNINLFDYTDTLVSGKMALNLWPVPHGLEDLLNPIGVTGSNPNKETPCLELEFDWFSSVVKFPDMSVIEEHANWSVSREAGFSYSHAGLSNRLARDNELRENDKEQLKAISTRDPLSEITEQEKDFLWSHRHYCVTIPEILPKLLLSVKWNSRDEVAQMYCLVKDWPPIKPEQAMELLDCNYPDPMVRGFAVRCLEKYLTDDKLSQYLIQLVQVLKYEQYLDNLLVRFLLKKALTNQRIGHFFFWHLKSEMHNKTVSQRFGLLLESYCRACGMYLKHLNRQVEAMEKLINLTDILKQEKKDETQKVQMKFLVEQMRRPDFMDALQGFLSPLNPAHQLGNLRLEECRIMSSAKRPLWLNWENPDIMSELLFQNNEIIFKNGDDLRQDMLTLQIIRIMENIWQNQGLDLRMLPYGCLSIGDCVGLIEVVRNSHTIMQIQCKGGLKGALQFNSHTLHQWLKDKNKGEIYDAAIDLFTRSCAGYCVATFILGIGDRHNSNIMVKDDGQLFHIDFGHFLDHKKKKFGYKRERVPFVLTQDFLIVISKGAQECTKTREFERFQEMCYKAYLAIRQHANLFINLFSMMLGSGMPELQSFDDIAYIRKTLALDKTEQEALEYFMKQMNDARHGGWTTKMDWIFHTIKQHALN
# Chain of H1047R PIK3CA enzyme (P27986 whole entry partner): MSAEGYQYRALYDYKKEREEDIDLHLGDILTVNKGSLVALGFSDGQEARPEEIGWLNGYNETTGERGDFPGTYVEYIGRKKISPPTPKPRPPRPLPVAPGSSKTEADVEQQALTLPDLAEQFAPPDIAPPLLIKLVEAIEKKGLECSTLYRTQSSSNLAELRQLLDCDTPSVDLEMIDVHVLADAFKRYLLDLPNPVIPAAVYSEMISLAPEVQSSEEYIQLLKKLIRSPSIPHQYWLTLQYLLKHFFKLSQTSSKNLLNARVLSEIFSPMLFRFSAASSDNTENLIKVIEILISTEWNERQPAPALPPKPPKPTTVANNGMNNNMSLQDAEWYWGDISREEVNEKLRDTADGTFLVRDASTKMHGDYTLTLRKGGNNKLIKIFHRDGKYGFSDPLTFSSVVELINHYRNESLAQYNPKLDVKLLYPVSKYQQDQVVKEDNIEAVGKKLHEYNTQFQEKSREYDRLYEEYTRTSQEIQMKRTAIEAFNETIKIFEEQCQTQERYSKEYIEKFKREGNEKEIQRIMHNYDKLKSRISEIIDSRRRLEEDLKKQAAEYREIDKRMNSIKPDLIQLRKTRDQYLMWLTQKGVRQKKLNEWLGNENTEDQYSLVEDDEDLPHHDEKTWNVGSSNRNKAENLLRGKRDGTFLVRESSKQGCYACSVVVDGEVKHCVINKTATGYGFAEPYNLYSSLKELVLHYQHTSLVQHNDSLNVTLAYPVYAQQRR
row,IC50 [µM],SMILES
1,1 to 10,"Cc1ccccc1C1NC(=O)c2cccc(NC(=O)C34CCC(CC3)CC4)c21 (stereo not drawn) [Compound I-179, N-(1-Oxo-3-(o-tolyl)isoindolin-4-yl)bicyclo[2.2.2]octane-1-carboxamide]"
2,0.1 to 0.5,N#Cc1cncn1Cc1cc(NC(=O)c2cc(F)cc(C(F)(F)F)c2)c2c(c1)C(=O)N[C@@H]2c1cc(F)ccc1Cl (stereo in doubt) [Compound I-1749]
3,10 to 100,O=C1NC(c2cc(F)ccc2Cl)c2c(Cn3ccc4ccccc4c3=O)cc(-c3ccc4ncnn4c3)cc21 (stereo not drawn) [Compound I-2026]
4,0.1 to 0.5,CC(F)c1cc(F)cc(C(=O)Nc2cc(Br)cc3c2C(c2cc(F)ccc2Cl)NC3=O)c1 (stereo not drawn) [Compound I-1288]
5,10 to 100,CN(Cc1cccc(O)c1)C(=O)Nc1cc(Br)cc2c1C(c1cc(F)ccc1Cl)NC2=O (stereo not drawn) [Compound I-1382]
6,1 to 10,"Cc1nccn1-c1cc(NC(=O)N2C[C@](O)(C(F)(F)F)c3cc(F)ccc32)c2c(c1)C(=O)N[C@@H]2c1cc(F)ccc1Cl (single isomer, unassigned) [Compound I-2662]"
7,≤ 0.1,O=C(Nc1cc(N2CCn3cncc3C2)cc2c1C(c1cc(F)ccc1Cl)NC2=O)c1cc(F)cc(C(F)(F)F)c1 (stereo not drawn) [Compound I-1237]
8,≤ 0.1,N#CC1CC(Oc2cc(NC(=O)c3cc(F)cc(C(F)(F)F)c3)c3c(c2)C(=O)NC3c2cc(F)ccc2Cl)C1 (stereo not drawn) [Compound I-1129]
9,10 to 100,O=C(Nc1cc(Br)cc2c1C(c1cc(F)ccc1Cl)NC2=O)c1ccccc1C(F)F (stereo not drawn) [Compound I-518]
10,10 to 100,O=C1NC(c2cc(F)ccc2Cl)c2c(NC(=O)C3COCCO3)cc(-c3ccc4ncnn4c3)cc21 (stereo not drawn) [Compound I-1910]
11,10 to 100,O=C1NC(c2cc(F)ccc2Cl)c2c1cc(-c1ccc3ncnn3c1)cc2N1C(=O)CCC1=O (stereo not drawn) [Compound I-1990]
12,1 to 10,Cc1ccccc1C1NC(=O)c2cccc(NC(=O)c3nscc3-c3ccccc3)c21 (stereo not drawn) [Compound I-413]
13,1 to 10,O=C1NC(c2cc(F)ccc2Cl)c2c(Nc3nc4ccccc4[nH]3)cc(-c3ccc4ncnn4c3)cc21 (stereo not drawn) [Compound I-1727]
14,10 to 100,CC1(C2NC(=O)c3cccc(NC(=O)c4cc(F)cc(C(F)(F)F)c4)c32)CCCCC1 (stereo not drawn) [Compound I-1917]
15,0.1 to 0.5,O=C(Cc1cc(-c2ccc3ncnn3c2)cc2c1C(c1cc(F)ccc1Cl)NC2=O)c1cc(F)cc(C(F)(F)F)c1 (stereo not drawn) [Compound I-1772]
16,1 to 10,"C[C@](O)(CC#N)c1cc(NC(=O)c2cc(F)cc(C(F)(F)F)c2)c2c(c1)C(=O)N[C@@H]2c1cc(F)ccc1Cl (single isomer, unassigned) [Compound I-1396]"
17,1 to 10,O=C1Nc2cccc(NC(=O)c3cc(F)cc(C(F)(F)F)c3)c2C(c2ccccc2Cl)N1 (stereo not drawn) [Compound I-1212]
18,10 to 100,O=C1NC(c2cc(F)ccc2Cl)c2c(NC(=O)C3COC4CCCCC43)cccc21 (stereo not drawn) [Compound I-2302]
19,≤ 0.1,O=C(Nc1cc(CCC(F)(F)F)nc2c1C(c1cc(F)ccc1Cl)NC2=O)c1cc(F)cc(C(F)(F)F)c1 (stereo not drawn) [Compound I-529]
20,1 to 10,O=C(Nc1ccnc2c1C(c1ccccc1Cl)NC2=O)c1cc(F)cc(Cl)c1 (stereo not drawn) [Compound I-171]
21,10 to 100,O=C(Nc1cccc2c1C(C1(O)CCCCC1)NC2=O)c1cc(F)cc(C(F)(F)F)c1 (stereo not drawn) [Compound I-1967]

row,IC50 [µM],SMILES
1,0.5 to 1,Cc1ccccc1[C@H]1NC(=O)c2cc(N)cc(NC(=O)c3nsc4ccccc34)c21 [Compound I-91]
2,1 to 10,O=C(CCc1ccccc1)Nc1cc(-c2ccc3ncnn3c2)cc2c1C(c1cc(F)ccc1Cl)NC2=O (stereo not drawn) [Compound I-1628]
3,10 to 100,O=C(Nc1cccc2c1[C@@H](C13C[C@H]4C[C@@H](C1)C[C@@H](C3)C4)NC2=O)c1cc(F)cc(C(F)(F)F)c1 (racemic) [Compound I-2074]
4,1 to 10,"O=C1N[C@@H](c2cc(F)ccc2Cl)c2c(NC(=O)[C@H]3CC(C(F)(F)F)C[C@@H](O)C3)cc(Br)cc21 (single isomer, unassigned) [Compound I-2152]"
5,0.1 to 0.5,Cc1ccccc1C1NC(=O)c2c(C(=O)N3CC(S(C)(=O)=O)C3)ccc(NC(=O)c3nsc4ccccc34)c21 (stereo not drawn) [Compound I-225]
6,10 to 100,O=C1NC(c2cc(F)ccc2Cl)c2c(NC(=O)N3CCCC3C3CC3)cccc21 (stereo not drawn) [Compound I-2408]
7,≤ 0.1,O=C(Nc1cc(-c2ccc3nnc(Cl)n3c2)cc2c1C(c1cc(F)ccc1Cl)NC2=O)c1cc(F)cc(C(F)(F)F)c1 (stereo not drawn) [Compound I-1574]
8,≤ 0.1,O=C(Nc1cc(-c2ccncc2F)nc2c1C(c1cc(F)ccc1Cl)NC2=O)c1cc(F)cc(C(F)(F)F)c1 (stereo not drawn) [Compound I-548]
9,≤ 0.1,O=C(Nc1cc(-c2cnn3ncnc3c2)cc2c1[C@H](c1cc(F)ccc1Cl)NC2=O)c1cc(F)cc(C(F)(F)F)c1 [Compound I-1872]
10,0.5 to 1,O=C1NC(c2cc(F)ccc2Cl)c2c(NC(=O)c3cc(F)cc4cn[nH]c34)cccc21 (stereo not drawn) [Compound I-594]
11,1 to 10,O=C(Nc1cc(-c2ccn[nH]2)cc2c1[C@@H](c1cc(F)ccc1Cl)NC2=O)c1cc(F)cc(C(F)(F)F)c1 [Compound I-866]
12,1 to 10,O=C(Nc1cc(-n2cccn2)cc2c1[C@@H](c1cc(F)ccc1Cl)NC2=O)c1cc(F)cc(C(F)(F)F)c1 [Compound I-1070]
13,10 to 100,Cc1ccccc1C1NC(=O)c2cccc(NC(=O)c3n[nH]cc3Br)c21 (stereo not drawn) [Compound I-411]
14,≤ 0.1,CC(C)(O)CNc1cc(NC(=O)c2cc(F)cc(C(F)(F)F)c2)c2c(c1)C(=O)NC2c1cc(F)ccc1Cl (stereo not drawn) [Compound I-730]
15,1 to 10,O=C(Nc1cc(-c2ccc3ncnn3c2)cc2c1[C@@H](c1cc(F)ccc1Cl)NC2=O)c1cc(F)cc2c1NC(=O)C2(F)F [Compound I-1583]
16,≤ 0.1,CNc1cc(NC(=O)N2C[C@](O)(C(F)F)c3cc(F)ccc32)c2c(c1)C(=O)N[C@@H]2c1cc(F)ccc1Cl [Compound I-2677]
17,≤ 0.1,N#Cc1cc2nccn2cc1-c1cc(NC(=O)c2cc(F)cc(C(F)(F)F)c2)c2c(c1)C(=O)N[C@H]2c1cc(F)ccc1Cl [Compound I-1586]
18,0.1 to 0.5,O=C1NC(c2ccccc2Cl)c2c(NC(=O)c3nsc4ccccc34)ccnc21 (stereo not drawn) [Compound I-172]
19,≤ 0.1,N#Cc1cnc2c(F)cc(-c3cc(NC(=O)c4cc(F)cc(C(F)(F)F)c4)c4c(c3)C(=O)NC4c3cc(F)ccc3Cl)cn12 (stereo not drawn) [Compound I-1797]
20,≤ 0.1,CC(C)(COS(C)(=O)=O)c1cc(NC(=O)c2cc(F)cc(C(F)(F)F)c2)c2c(c1)C(=O)NC2c1cc(F)ccc1Cl (stereo not drawn) [Compound I-656]
21,1 to 10,"O=C1N[C@@H](c2cc(F)ccc2Cl)c2c(NC(=O)N3C[C@](O)(C(F)(F)F)c4cc(F)ccc43)cc(-n3ccccc3=O)cc21 (single isomer, unassigned) [Compound I-2529]"

row,IC50 [µM],SMILES
1,1 to 10,O=C(Nc1cc(Br)cc2c1C(c1cc(F)ccc1Cl)NC2=O)c1cccc(SC(F)(F)F)c1 (stereo not drawn) [Compound I-1314]
2,10 to 100,O=C1NC(c2cc(F)ccc2Cl)c2c(NC(=O)N3CCCC(F)C3)cc(Br)cc21 (stereo not drawn) [Compound I-491]
3,10 to 100,CN1CCC(C(=O)Nc2cc(-c3ccc4ncnn4c3)cc3c2C(c2cc(F)ccc2Cl)NC3=O)CC1 (stereo not drawn) [Compound I-1758]
4,0.1 to 0.5,Cc1ccc(-c2cc(NC(=O)c3cc(F)cc(Cl)c3)c3c(n2)C(=O)NC3c2cc(F)ccc2Cl)cn1 (stereo not drawn) [Compound I-497]
5,0.1 to 0.5,O=C(Nc1cc(Br)cc2c1C(c1cc(F)ccc1Cl)NC2=O)c1cc(F)cc(OC(F)F)c1 (stereo not drawn) [Compound I-833]
6,≤ 0.1,N#C[C@H]1C[C@@H](Oc2cc(NC(=O)c3cc(F)cc(C(F)(F)F)c3)c3c(c2)C(=O)NC3c2cc(F)ccc2Cl)C1 (mixture of isomers) [Compound I-1295]
7,1 to 10,"[2H]C1([2H])N(C(=O)Nc2cccc3c2[C@H](c2cc(F)ccc2Cl)NC3=O)c2ccc(F)cc2[C@@]1(O)C(F)(F)F (single isomer, unassigned) [Compound I-2593]"
8,≤ 0.1,"[2H][C@@]1(c2cc(F)ccc2Cl)NC(=O)c2cc(-c3ccc4ncnn4c3)cc(NC(=O)c3cc(F)cc(C(F)(F)F)c3)c21 (single isomer, unassigned) [Compound I-1601]"
9,1 to 10,"O=C1C[C@H](c2cc(NC(=O)c3cc(F)cc(C(F)(F)F)c3)c3c(c2)C(=O)N[C@@H]3c2cc(F)ccc2Cl)CN1 (single isomer, unassigned) [Compound I-1711]"
10,1 to 10,Cc1cc(F)cc(C(=O)Nc2cc(Br)cc3c2C(c2cc(F)ccc2Cl)NC3=O)c1 (stereo not drawn) [Compound I-951]
11,10 to 100,O=C(O)c1cc(-c2ccc3ncnn3c2)cc2c1C(c1cc(F)ccc1Cl)NC2=O (stereo not drawn) [Compound I-1784]
12,1 to 10,"O=C1N[C@@H](c2cc(F)ccc2Cl)c2c(NC(=O)N3C[C@](O)(C(F)F)c4ccccc43)cccc21 (single isomer, unassigned) [Compound I-2485]"
13,1 to 10,CC1(C)CC1C1NC(=O)c2cccc(NC(=O)c3cc(F)cc(C(F)(F)F)c3)c21 (stereo not drawn) [Compound I-1766]
14,≤ 0.1,N#Cc1cccc([S+]([O-])Cc2cc(NC(=O)c3cc(F)cc(C(F)(F)F)c3)c3c(c2)C(=O)NC3c2cc(F)ccc2Cl)c1 (stereo not drawn) [Compound I-1487]
15,1 to 10,O=C(Nc1cc(-c2ccc3ncnn3c2)cc2c1[C@@H](c1cc(F)ccc1Cl)NC2=O)c1cc(Cl)cc(Cl)c1 (stereo in doubt) [Compound I-1207]
16,0.1 to 0.5,O=C(Nc1cc(-n2cc(F)cn2)nc2c1C(c1cc(F)ccc1Cl)NC2=O)c1cc(F)cc(C(F)(F)F)c1 (stereo not drawn) [Compound I-354]
17,10 to 100,"O=C1N[C@H](c2cc(F)ccc2Cl)c2c(NC(=O)N3C[C@](O)(C(F)F)c4ccccc43)cccc21 (single isomer, unassigned) [Compound I-2486]"
18,10 to 100,"O=C(Nc1cccc2c1[C@@H](NC1CCCC1)NC2=O)c1cc(F)cc(C(F)(F)F)c1 (single isomer, unassigned) [Compound I-2249]"
19,0.1 to 0.5,Nc1nn(C(=O)Nc2cccc3c2C(c2cc(F)ccc2Cl)NC3=O)c2ccccc12 (stereo not drawn) [Compound I-2381]
20,1 to 10,O=C(Nc1cccc2c1C(c1cc(F)ccc1Cl)NC2=O)c1cc(B(O)O)cc(C(F)(F)F)c1 (stereo not drawn) [Compound I-450]
21,10 to 100,O=C1NC(c2cc(F)ccc2Cl)c2c(NC(=O)N3c4ccccc4C(O)C34CC4)cccc21 (mixture of isomers) [Compound I-2280]

# Source: patent US12581252B2, “Substituted pyrrolo[3,4-b]pyridines as PI3K-α inhibitors” (Relay Therapeutics, Inc., priority 2020, dated 2026)
